Assay results reported in ChEMBL document CHEMBL2040718, “Synthesis of friedelan triterpenoid analogs with DNA topoisomerase IIα inhibitory activity and their molecular docking studies” (Eur J Med Chem, 2012).
The source made the active and inactive calls.

Assays:
[1] = molecular target: DNA topoisomerase 2-alpha (Homo sapiens) (UniProt P11388); test: Inhibition of human topoisomerase 2alpha-mediated relaxation of supercoiled pBR322 plasmid DNA after 15 mins using ethidium bromide staining by agarose-gel electrophoresis
Chain of DNA topoisomerase 2-alpha (Homo sapiens) (P11388 whole entry): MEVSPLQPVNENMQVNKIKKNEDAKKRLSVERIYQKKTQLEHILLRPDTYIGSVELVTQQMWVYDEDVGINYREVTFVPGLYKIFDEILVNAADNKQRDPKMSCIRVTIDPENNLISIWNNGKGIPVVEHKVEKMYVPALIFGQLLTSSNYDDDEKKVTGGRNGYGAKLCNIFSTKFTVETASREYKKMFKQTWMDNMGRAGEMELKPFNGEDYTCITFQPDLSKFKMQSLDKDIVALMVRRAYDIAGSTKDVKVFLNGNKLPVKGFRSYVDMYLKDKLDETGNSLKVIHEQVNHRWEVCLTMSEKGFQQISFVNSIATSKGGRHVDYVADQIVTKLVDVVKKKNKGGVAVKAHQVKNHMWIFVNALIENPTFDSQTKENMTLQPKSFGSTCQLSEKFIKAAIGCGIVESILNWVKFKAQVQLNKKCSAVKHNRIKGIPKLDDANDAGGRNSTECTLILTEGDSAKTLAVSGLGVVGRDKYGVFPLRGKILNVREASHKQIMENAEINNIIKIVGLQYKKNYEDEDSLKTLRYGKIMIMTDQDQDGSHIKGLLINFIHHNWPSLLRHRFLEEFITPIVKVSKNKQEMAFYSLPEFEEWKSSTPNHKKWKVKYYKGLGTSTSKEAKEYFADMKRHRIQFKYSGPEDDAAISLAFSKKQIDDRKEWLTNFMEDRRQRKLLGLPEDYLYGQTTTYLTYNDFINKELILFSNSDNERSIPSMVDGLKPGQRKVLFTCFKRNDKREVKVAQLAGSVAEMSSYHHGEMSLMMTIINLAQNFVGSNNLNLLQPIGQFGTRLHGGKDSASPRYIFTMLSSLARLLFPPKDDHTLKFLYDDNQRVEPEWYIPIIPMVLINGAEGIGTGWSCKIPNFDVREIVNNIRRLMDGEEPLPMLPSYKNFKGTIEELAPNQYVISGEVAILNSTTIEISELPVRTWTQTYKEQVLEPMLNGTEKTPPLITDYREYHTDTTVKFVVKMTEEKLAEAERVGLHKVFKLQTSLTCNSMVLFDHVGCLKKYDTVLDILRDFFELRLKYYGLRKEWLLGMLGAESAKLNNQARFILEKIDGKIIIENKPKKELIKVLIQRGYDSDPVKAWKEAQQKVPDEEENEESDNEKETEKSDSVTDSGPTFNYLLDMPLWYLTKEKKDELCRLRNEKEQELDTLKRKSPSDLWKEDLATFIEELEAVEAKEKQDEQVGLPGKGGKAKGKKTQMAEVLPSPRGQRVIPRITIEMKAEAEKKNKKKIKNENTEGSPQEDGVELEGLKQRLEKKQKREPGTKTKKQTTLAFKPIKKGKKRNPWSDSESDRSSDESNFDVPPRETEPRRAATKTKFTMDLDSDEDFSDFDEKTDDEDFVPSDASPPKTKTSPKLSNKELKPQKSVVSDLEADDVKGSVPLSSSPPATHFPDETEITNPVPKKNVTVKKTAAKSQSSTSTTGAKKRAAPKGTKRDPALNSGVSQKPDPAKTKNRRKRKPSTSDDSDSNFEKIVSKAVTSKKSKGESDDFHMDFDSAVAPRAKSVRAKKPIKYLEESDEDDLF

[2] = molecular target: DNA topoisomerase 2-alpha (Homo sapiens) (UniProt P11388); test: Partial inhibition of human topoisomerase 2alpha-mediated relaxation of supercoiled pBR322 plasmid DNA at 25 uM after 15 mins using ethidium bromide staining by agarose-gel electrophoresis
[3] = molecular target: DNA topoisomerase 2-alpha (Homo sapiens) (UniProt P11388); test: Complete inhibition of human topoisomerase 2alpha-mediated relaxation of supercoiled pBR322 plasmid DNA at 50 uM after 15 mins using ethidium bromide staining by agarose-gel electrophoresis
[4] = molecular target: DNA topoisomerase 2-alpha (Homo sapiens) (UniProt P11388); test: Complete inhibition of human topoisomerase 2alpha-mediated relaxation of supercoiled pBR322 plasmid DNA at 100 uM after 15 mins using ethidium bromide staining by agarose-gel electrophoresis

Measured: inhibition

C[C@@H](C(=O)O)[C@@]1(C)CC[C@H]2[C@@](C)(CC[C@@]3(C)[C@@H]4CC(C)(C)CC[C@]4(C)CC[C@]23C)[C@@H]1CC(=O)O
active: [1] Dose-dependent effect | [2] | [3] | [4]

CC(=O)[C@@]1(C)CC[C@H]2[C@@](C)(CC[C@@]3(C)[C@@H]4CC(C)(C)CC[C@]4(C)CC[C@]23C)[C@@H]1CC(=O)O
active: [1] Dose-dependent effect | [2] | [3] | [4]
